The data set in a line: Phase 2 open-label study (Part A): plasma pharmacokinetics. The class given is in vivo, human. To be noted: 30 mg oral solution once daily with food, N=13. How it is done: Compound 1 was provided as a 6 mg/mL stock aqueous solution, which was further diluted with sterile water to achieve the selected dose that was administered as an oral solution. Participants received an open label 30 mg Compound 1 oral dose administered at 8:00 PM (+/−15 minutes) with food on Days 1 through 14. Subjects who experienced drug-related moderate or severe adverse events (as judged by the study investigators) while receiving the 30 mg dose of study drug were to have their dose reduced to 20 mg for the remaining treatment period. Any subjects not tolerating a 20 mg dose were to be terminated from the study. Vital signs were collected daily. Other study procedures and plasma collection for PK parameters were conducted at various times during the 14-day open label treatment period (procedure details in the Supplemental Appendix). Treatment follow-up was conducted on an outpatient basis and included a follow-up visit at 1 week (21+/−1 day) and at 2 weeks (28+/−1 day) after the last dose of the study drug.
The primary endpoint of safety and tolerability of Compound 1 was assessed by the frequency and severity of adverse events, vital signs, changes in clinical laboratory measures, physical exams, electrocardiograms (ECGs), the Stanford Sleepiness Scale (SSS) score, and suicide ideation using the Columbia-Suicide Severity Rating Scale (C-SSRS, Supplemental Table 1). Secondary efficacy endpoints included: change from baseline in HAM-D total score, HAM-D response, defined as having a 50% or greater reduction from baseline in HAM-D total score, HAM-D remission, defined as having a HAM-D total score of ≤7, HAM-A change from baseline, and MADRS score change from baseline. The PK profile of Compound 1 was also determined from plasma samples.

These results are taken from patent publication US20230310459A1, “NEUROACTIVE STEROIDS AND THEIR METHODS OF USE” (Sage Therapeutics, Inc., priority 2017, published 2023).

As for `C[C@@]1(O)CC[C@H]2[C@H](CC[C@@H]3[C@@H]2CC[C@]2(C)[C@@H](C(=O)Cn4cc(C#N)cn4)CC[C@@H]32)C1` [Compound 1, 1-(2-((3R,5R,8R,9R,10S,13S,14S,17S)-3-hydroxy-3,13-dimethylhexadecahydro-1H-cyclopenta[a]phenanthren-17-yl)-2-oxoethyl)-1H-pyrazole-4-carbonitrile], the “Cavg ss, geometric mean” value (Day 7, steady state) was found to be 41.4 ng/mL. The highest concentration (Cmax) (human, plasma, Day 7, steady state, MDD subjects, read-out: Cmax, geometric mean) was 101 ng/mL. Also, the AUC(0-t) (human, plasma, Day 7, steady state, read-out: AUC0-t, geometric mean) amounted to 992 ng·h/mL. For the same molecule, the AUC(0-inf) (human, plasma, Day 7, steady state, read-out: AUCinf, geometric mean) is 1150 ng·h/mL. In addition, the half-life (human, plasma, Day 7, read-out: T1/2, median (converted)) is 10.3 h. Further, the Tmax (human, plasma, Day 7, read-out: Tmax, median) worked out at 1.1 h.

The Cmax is the peak of the concentration-time curve. One may read the Tmax as the time from dosing to the highest level.
